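Dose response: 5 concentrations. Exposure: 48 h. Format: 96-well plates. Endpoint: linear interpolation; highest concentration if not reached. Abbreviation: GI50, concentration required for 50% inhibition of growth.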 Calls of active or inactive are those of the source. Rule as the data show it: active = GI50 up to about 1.1 µM and inactive = higher.
How the values were obtained:
Assay in all cases: NCI-60 cell line screen, 48 h
[1] = tested on: SW-620
[2] = tested on: SF-268
[3] = tested on: HCT-15
[4] = tested on: UACC-62
[5] = tested on: Malme-3M
[6] = tested on: HT-29
[7] = tested on: OVCAR-5
[8] = tested on: OVCAR-8
[9] = tested on: NCI-H226
[10] = tested on: A549
[11] = tested on: TK-10
[12] = tested on: UO-31
[13] = tested on: NCI/ADR-RES
[14] = tested on: DU-145
[15] = tested on: SR
[16] = tested on: SNB-19
[17] = tested on: CAKI-1
[18] = tested on: MCF7
[19] = tested on: SNB-75
[20] = tested on: NCI-H522
[21] = tested on: COLO 205
[22] = tested on: BT-549
[23] = tested on: SF-539
[24] = tested on: K562
[25] = tested on: LOX IMVI
[26] = tested on: SK-MEL-28
[27] = tested on: 786-0
[28] = tested on: HCC 2998
[29] = tested on: SK-OV-3
[30] = tested on: HL-60
[31] = tested on: SF-295
[32] = tested on: MDA-MB-435
[33] = tested on: ACHN
[34] = tested on: MDA-MB-231
[35] = tested on: HOP-62
[36] = tested on: SK-MEL-2
[37] = tested on: MDA-N
[38] = tested on: NCI-H23
[39] = tested on: U-251
[40] = tested on: OVCAR-4
[41] = tested on: RPMI-8226
[42] = tested on: HCT-116
[43] = tested on: HOP-92
[44] = tested on: M14
[45] = tested on: SN12C
[46] = tested on: SK-MEL-5
[47] = tested on: RXF 393
[48] = tested on: T47D
[49] = tested on: PC-3
[50] = tested on: IGROV-1
[51] = tested on: EKVX
[52] = tested on: NCI-H460
[53] = tested on: KM12
[54] = tested on: OVCAR-3
[55] = tested on: UACC-257
[56] = tested on: CCRF-CEM
[57] = tested on: Hs-578T
[58] = tested on: MOLT-4
[59] = tested on: A498

Measured: GI50

COC(=O)[C@]1(c2cc3ccccc3n2S(=O)(=O)c2ccccc2)CC2CCC1NC2 (stereo not given in full)
inactive: [1] 14.5 µM | [2] 16.8 µM | [4] 14.5 µM | [5] 14.9 µM | [6] 12.4 µM | [7] 16.1 µM | [8] 14.9 µM | [9] 14.6 µM | [10] 12.6 µM | [11] 31.8 µM | [12] 10.5 µM | [13] 16.6 µM | [14] 16.1 µM | [16] 14.8 µM | [17] 15.5 µM | [18] 13.2 µM | [19] 12.7 µM | [20] 14.3 µM | [21] 14.4 µM | [22] 14.5 µM | [23] 16.4 µM | [24] 10.4 µM | [25] 15.6 µM | [26] 16.8 µM | [27] 14.3 µM | [28] 9.38 µM | [29] 16.7 µM | [30] 2.85 µM | [31] 16.9 µM | [32] 14.2 µM | [33] 21.7 µM | [34] 14.1 µM | [35] 18 µM | [36] 16.7 µM | [37] 14.7 µM | [38] 15.2 µM | [39] 13.6 µM | [40] 16.4 µM | [41] 6.65 µM | [42] 13.7 µM | [43] 9.25 µM | [44] 14.2 µM | [45] 15.7 µM | [46] 13 µM | [47] 12.2 µM | [48] 12.2 µM | [49] 12.1 µM | [50] 14 µM | [51] 14.2 µM | [52] 14 µM | [53] 15.1 µM | [54] 17 µM | [55] 15.8 µM | [56] 16.1 µM
15.6 µM: [3]
active: [15] < 0.01 µM

O=C1c2ccccc2CC12Cc1cc3c(cc1C2=O)CCC3 (stereo not given)
> 100 µM: [3]
inactive: [1] > 100 µM | [2] > 100 µM | [5] > 100 µM | [6] > 100 µM | [7] > 100 µM | [8] > 100 µM | [10] > 100 µM | [11] > 100 µM | [12] > 100 µM | [13] > 100 µM | [14] > 100 µM | [15] > 100 µM | [16] > 100 µM | [17] > 100 µM | [57] > 100 µM | [58] > 100 µM | [18] > 100 µM | [19] > 100 µM | [20] > 100 µM | [23] > 100 µM | [24] > 100 µM | [25] > 100 µM | [59] > 100 µM | [26] > 100 µM | [27] > 100 µM | [28] > 100 µM | [29] > 100 µM | [30] > 100 µM | [31] > 100 µM | [32] > 100 µM | [33] > 100 µM | [34] > 100 µM | [35] > 100 µM | [36] > 100 µM | [37] > 100 µM | [38] > 100 µM | [39] > 100 µM | [40] > 100 µM | [41] 43.6 µM | [42] > 100 µM | [43] > 100 µM | [44] > 100 µM | [46] > 100 µM | [47] > 100 µM | [48] > 100 µM | [49] > 100 µM | [50] > 100 µM | [51] > 100 µM | [52] > 100 µM | [54] > 100 µM | [55] > 100 µM | [56] > 100 µM

Cc1ccc(S(=O)(=O)NCCSCCNS(=O)(=O)c2ccc(C)cc2)cc1
> 100 µM: [3]
inactive: [1] > 100 µM | [2] > 100 µM | [6] > 100 µM | [8] > 100 µM | [9] > 100 µM | [10] > 100 µM | [11] > 100 µM | [12] > 100 µM | [13] > 100 µM | [14] > 100 µM | [15] > 100 µM | [16] > 100 µM | [57] > 100 µM | [58] > 100 µM | [18] > 100 µM | [19] > 100 µM | [20] > 100 µM | [21] > 100 µM | [24] > 100 µM | [25] > 100 µM | [59] > 100 µM | [26] > 100 µM | [28] > 100 µM | [29] > 100 µM | [31] > 100 µM | [32] > 100 µM | [33] > 100 µM | [34] > 100 µM | [37] > 100 µM | [38] > 100 µM | [39] > 100 µM | [40] > 100 µM | [42] > 100 µM | [43] > 100 µM | [44] > 100 µM | [45] > 100 µM | [46] > 100 µM | [47] > 100 µM | [48] > 100 µM | [49] > 100 µM | [52] > 100 µM | [53] > 100 µM | [54] > 100 µM | [55] > 100 µM | [56] > 100 µM
